Measurements published in US11046699B2, “Pyrazolo-pyrimidin-amino-cycloalkyl compounds and their therapeutic uses” (RAPT THERAPEUTICS, INC., priority 2018, dated 2021).

Target: GCN2 (Homo sapiens, UniProt Q9P2K8)
Assay: GCN2 enzymatic endpoint assay: phosphorylation of GFP-eIF2α measured by TR-FRET (Lanthascreen)
Format: biochemical
Settings: tested as described in Example 77; compound and/or hydrochloride, dihydrochloride or trifluoroacetic acid salt; read-out: IC 50 Activity
Procedure: The Enzymatic assay was run as an endpoint assay to quantify the activity of the serine/threonine GCN2 kinase by way of measuring phosphorylation of its natural substrate, eiF2α.
The enzymatic reaction was initiated by incubating with 2 μM ATP and 80 nM of GFP labeled eiF2a substrate at room temperature and then stopped after 90 minutes with EDTA. The amount of phosphorylated eIF2α is determined by TR-FRET (Lanthascreen). A terbium labeled antibody associates with the phosphorylated substrate resulting in an increased TR-FRET value. Activity was calculated as the ratio of the acceptor (fluorescein) signal at 520 nm wavelength to the donor (terbium) signal 495 nm. The amount of antibody that is bound to the tracer is directly proportional to the amount of phosphorylated substrate present, and in this manner, kinase activity can be detected and measured by an increase in the TR-FRET value.
Compound addition by D300
5 μL enzyme solution in assay buffer
5 μL substrate/ATP mixture in assay buffer
5 μL stop/detection mix in antibody dilution buffer

Chain of GCN2 (Q9P2K8 whole entry): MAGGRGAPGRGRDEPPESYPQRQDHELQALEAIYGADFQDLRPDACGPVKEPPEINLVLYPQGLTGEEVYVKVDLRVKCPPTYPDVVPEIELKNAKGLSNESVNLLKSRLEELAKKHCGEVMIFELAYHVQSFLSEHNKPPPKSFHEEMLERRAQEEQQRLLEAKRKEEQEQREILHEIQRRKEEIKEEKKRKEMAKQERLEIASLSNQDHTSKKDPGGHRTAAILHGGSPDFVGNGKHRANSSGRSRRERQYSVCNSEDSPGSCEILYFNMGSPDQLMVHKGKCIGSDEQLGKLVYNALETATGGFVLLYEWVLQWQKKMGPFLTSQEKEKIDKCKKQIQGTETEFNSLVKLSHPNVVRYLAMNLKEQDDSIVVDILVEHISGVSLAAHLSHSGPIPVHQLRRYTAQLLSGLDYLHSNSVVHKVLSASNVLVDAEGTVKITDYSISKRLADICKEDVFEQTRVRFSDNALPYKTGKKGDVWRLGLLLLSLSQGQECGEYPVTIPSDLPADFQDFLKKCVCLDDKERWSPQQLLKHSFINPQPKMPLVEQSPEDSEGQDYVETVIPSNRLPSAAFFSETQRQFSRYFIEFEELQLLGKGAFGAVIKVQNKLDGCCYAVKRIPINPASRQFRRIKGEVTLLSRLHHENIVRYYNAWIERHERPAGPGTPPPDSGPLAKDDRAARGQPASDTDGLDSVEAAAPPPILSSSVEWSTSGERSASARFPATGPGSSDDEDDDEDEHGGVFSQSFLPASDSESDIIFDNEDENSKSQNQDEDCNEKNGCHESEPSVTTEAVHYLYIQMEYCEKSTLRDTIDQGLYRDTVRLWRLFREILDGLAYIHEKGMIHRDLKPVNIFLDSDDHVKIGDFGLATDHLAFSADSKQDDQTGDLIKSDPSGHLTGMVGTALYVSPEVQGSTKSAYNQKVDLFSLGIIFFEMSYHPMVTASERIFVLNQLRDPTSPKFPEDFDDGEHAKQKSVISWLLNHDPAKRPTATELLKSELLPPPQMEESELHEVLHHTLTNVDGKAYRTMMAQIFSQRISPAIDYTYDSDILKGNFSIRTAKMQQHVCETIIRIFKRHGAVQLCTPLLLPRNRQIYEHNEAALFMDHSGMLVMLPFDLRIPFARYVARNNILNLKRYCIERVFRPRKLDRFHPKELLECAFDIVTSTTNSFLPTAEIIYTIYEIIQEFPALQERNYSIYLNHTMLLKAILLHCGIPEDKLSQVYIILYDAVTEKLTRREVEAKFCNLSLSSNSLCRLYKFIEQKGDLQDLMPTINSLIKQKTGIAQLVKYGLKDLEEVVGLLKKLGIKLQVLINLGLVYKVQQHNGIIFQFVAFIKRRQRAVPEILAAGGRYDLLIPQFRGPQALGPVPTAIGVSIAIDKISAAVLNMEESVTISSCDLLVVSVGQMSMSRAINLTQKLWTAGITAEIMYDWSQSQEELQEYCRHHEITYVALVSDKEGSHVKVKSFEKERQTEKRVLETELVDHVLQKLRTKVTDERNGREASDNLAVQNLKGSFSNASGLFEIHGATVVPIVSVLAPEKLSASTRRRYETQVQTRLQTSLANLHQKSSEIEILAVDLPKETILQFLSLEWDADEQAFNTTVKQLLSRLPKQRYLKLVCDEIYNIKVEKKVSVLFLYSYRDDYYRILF

IC50 [nM]	SMILES
25 to 200	O=C(CO)N1CCN(C(=O)[C@@H]2CC[C@@H](Nc3ncc4c(Br)nn(-c5cc(F)c6ncccc6c5)c4n3)C2)CC1 [1-(4-((1R,3R)-3-((3-bromo-1-(8-fluoroquinolin-6-yl)-1H-pyrazolo[3,4-d]pyrimidin-6-yl)amino)cyclopentane-1-carbonyl)piperazin-1-yl)-2-hydroxyethan-1-one]
25 to 200	O=C(CO)N1CCN(C(=O)[C@@H]2CC[C@@H](Nc3ncc4c(Br)nn(-c5ccc6ncccc6c5)c4n3)C2)CC1 [1-(4-((1R,3R)-3-((3-bromo-1-(quinolin-6-yl)-1H-pyrazolo[3,4-d]pyrimidin-6-yl)amino)cyclopentane-1-carbonyl)piperazin-1-yl)-2-hydroxyethan-1-one]
25 to 200	CC(O)C(=O)N1CCN(C(=O)[C@@H]2CC[C@@H](Nc3ncc4c(Br)nn(-c5ccc6ncccc6c5)c4n3)C2)CC1 (stereo partly drawn) [1-(4-((1R,3R)-3-((3-bromo-1-(quinolin-6-yl)-1H-pyrazolo[3,4-d]pyrimidin-6-yl)amino)cyclopentane-1-carbonyl)piperazin-1-yl)-2-hydroxypropan-1-one]
25 to 200	CCN1CN(C(=O)[C@@H]2CC[C@@H](Nc3ncc4c(Br)nn(-c5cc(F)c6ncccc6c5)c4n3)C2)CC1=O [1-((1R,3R)-3-((3-bromo-1-(8-fluoroquinolin-6-yl)-1H-pyrazolo[3,4-d]pyrimidin-6-yl)amino)cyclopentane-1-carbonyl)-3-ethyl-imidazolidin-4-one]
500 to 1000	O=C([C@@H]1CC[C@@H](Nc2ncc3c(Br)nn(-c4cc(F)c5ncccc5c4)c3n2)C1)N1CCC(O)(C(=O)O)C1 (stereo partly drawn) [1-((1R,3R)-3-((3-bromo-1-(8-fluoroquinolin-6-yl)-1H-pyrazolo[3,4-d]pyrimidin-6-yl)amino)cyclopentane-1-carbonyl)-3-hydroxy-pyrrolidine-3-carboxylic acid]
25 to 200	CC1(C(=O)O)CN(C(=O)[C@@H]2CC[C@@H](Nc3ncc4c(Br)nn(-c5cc(F)c6ncccc6c5)c4n3)C2)C1 [1-((1R,3R)-3-((3-bromo-1-(8-fluoroquinolin-6-yl)-1H-pyrazolo[3,4-d]pyrimidin-6-yl)amino)cyclopentane-1-carbonyl)-3-methylazetidine-3-carboxylic acid]
< 25	N#CC1CN(C(=O)[C@@H]2CC[C@@H](Nc3ncc4c(Br)cn(-c5cc(F)c6ncccc6c5)c4n3)C2)C1 [1-((1R,3R)-3-((5-bromo-7-(8-fluoroquinolin-6-yl)-7H-pyrrolo[2,3-d]pyrimidin-2-yl)amino)cyclopentane-1-carbonyl)azetidine-3-carbonitrile]
< 25	CCC(=O)N1CCN(C(=O)[C@@H]2CC[C@@H](Nc3ncc4c(Br)nn(-c5cc(F)c6ncccc6c5)c4n3)C2)C1 [1-[3-[(1R,3R)-3-[[3-bromo-1-(8-fluoro-6-quinolyl)pyrazolo[3,4-d]pyrimidin-6-yl]amino]cyclopentanecarbonyl]imidazolidin-1-yl]propan-1-one]
25 to 200	CC(=O)N1CCC(Nc2ncc3c(Br)nn(-c4cc(F)c5ncccc5c4)c3n2)CC1 [1-[4-[[3-bromo-1-(8-fluoro-6-quinolyl)pyrazolo[3,4-d]pyrimidin-6-yl]amino]-1-piperidyl]ethanone]
< 25	CS(=O)(=O)C1CC[C@@H](Nc2ncc3c(Br)nn(-c4cc(CCN)c5nccnc5c4)c3n2)C1 (stereo partly drawn) [1-[8-(2-aminoethyl)quinoxalin-6-yl]-3-bromo-N-[(1R)-3-methylsulfonylcyclo-pentyl]pyrazolo[3,4-d]pyrimidin-6-amine]
25 to 200	CP(C)(=O)[C@@H]1CC[C@@H](Nc2ncc3c(Br)nn(-c4cc(CCN)c5nccnc5c4)c3n2)C1 [1-[8-(2-aminoethyl)quinoxalin-6-yl]-3-bromo-N-[(1R,3R)-3-dimethylphosphorylcyclopentyl] pyrazolo[3,4-d]pyrimidin-6-amine]
< 25	C[C@@]1(C(=O)N2CNC(=O)C2)CC[C@@H](Nc2ncc3c(Br)nn(-c4cc(F)c5ncccc5c4)c3n2)C1 [1-[(1R,3R)-3-[[3-bromo-1-(8-fluoro-6-quinolyl)pyrazolo[3,4-d]pyrimidin-6-yl]amino]-1-methyl-cyclopentanecarbonyl] imidazolidin-4-one]
< 25	CN1CN(C(=O)[C@]2(C)CC[C@@H](Nc3ncc4c(Br)nn(-c5cc(F)c6ncccc6c5)c4n3)C2)CC1=O [1-[(1R,3R)-3-[[3-bromo-1-(8-fluoro-6-quinolyl)pyrazolo[3,4-d]pyrimidin-6-yl]amino]-1-methyl-cyclopentanecarbonyl]-3-methyl-imidazolidin-4-one]
25 to 200	O=C1CN(C(=O)[C@@H]2CC[C@@H](Nc3ncc4c(Br)nn(-c5cc(F)c6ncccc6c5)c4n3)C2)CN1CC1CC1 [1-[(1R,3R)-3-[[3-bromo-1-(8-fluoro-6-quinolyl)pyrazolo[3,4-d]pyrimidin-6-yl]amino]cyclopentanecarbonyl]-3-(cyclopropylmethyl)imidazolidin-4-one]
< 25	N#CC1CN(C(=O)[C@@H]2CC[C@@H](Nc3ncc4c(Br)nn(-c5cc(F)c6ncccc6c5)c4n3)C2)C1 [1-[(1R,3R)-3-[[3-bromo-1-(8-fluoro-6-quinolyl)pyrazolo[3,4-d]pyrimidin-6-yl]amino]cyclopentanecarbonyl]azetidine-3-carbonitrile]
25 to 200	C[C@]1(C(=O)N2CNC(=O)C2)CC[C@@H](Nc2ncc3c(Br)nn(-c4cc(F)c5ncccc5c4)c3n2)C1 [1-[(1S,3R)-3-[[3-bromo-1-(8-fluoro-6-quinolyl)pyrazolo[3,4-d]pyrimidin-6-yl]amino]-1-methyl-cyclopentanecarbonyl] imidazolidin-4-one]
25 to 200	CN1CN(C(=O)[C@@]2(C)CC[C@@H](Nc3ncc4c(Br)nn(-c5cc(F)c6ncccc6c5)c4n3)C2)CC1=O [1-[(1S,3R)-3-[[3-bromo-1-(8-fluoro-6-quinolyl)pyrazolo[3,4-d]pyrimidin-6-yl]amino]-1-methyl-cyclopentanecarbonyl]-3-methyl-imidazolidin-4-one]
< 25	COCCN1CN(C(=O)C2(C)CC[C@@H](Nc3ncc4c(Br)nn(-c5cc(F)c6ncccc6c5)c4n3)C2)CC1=O (stereo partly drawn) [1-[(3R)-3-[[3-bromo-1-(8-fluoro-6-quinolyl)pyrazolo[3,4-d]pyrimidin-6-yl]amino]-1-methyl-cyclopentanecarbonyl]-3-(2-methoxyethyl)imidazolidin-4-one]
25 to 200	CC1(C(=O)N2CCC(F)(C#N)C2)CC[C@@H](Nc2ncc3c(Br)nn(-c4cc(F)c5ncccc5c4)c3n2)C1 (stereo partly drawn) [1-[(3R)-3-[[3-bromo-1-(8-fluoro-6-quinolyl)pyrazolo[3,4-d]pyrimidin-6-yl]amino]-1-methyl-cyclopentanecarbonyl]-3-fluoro-pyrrolidine-3-carbonitrile]
< 25	CN1CN(C(=O)C2(C)CC[C@@H](Nc3ncc4c(Br)nn(-c5cc(F)c6ncccc6c5)c4n3)C2)CC1=O (stereo partly drawn) [1-[(3R)-3-[[3-bromo-1-(8-fluoro-6-quinolyl)pyrazolo[3,4-d]pyrimidin-6-yl]amino]-1-methyl-cyclopentanecarbonyl]-3-methyl-imidazolidin-4-one]
< 25	CC1(C(=O)N2CNC(=O)C2)CC[C@@H](Nc2ncc3c(Br)nn(-c4cc(F)c5ncccc5c4)c3n2)C1 (stereo partly drawn) [1-[(3R)-3-[[3-bromo-1-(8-fluoro-6-quinolyl)pyrazolo[3,4-d]pyrimidin-6-yl]amino]-1-methyl-cyclopentanecarbonyl]imidazolidin-4-one]
< 25	CC(=O)OCC(=O)N1CCN(C(=O)[C@@H]2CC[C@@H](Nc3ncc4c(Br)nn(-c5cc(C#N)c6ncccc6c5)c4n3)C2)CC1 [2-(4-((1R,3R)-3-((3-bromo-1-(8-cyanoquinolin-6-yl)-1H-pyrazolo[3,4-d]pyrimidin-6-yl)amino)cyclopentane-1-carbonyl)piperazin-1-yl)-2-oxoethyl acetate]
25 to 200	CNC(=O)CC1CC(Nc2ncc3c(Br)nn(-c4cc(CCN)c5ccccc5c4)c3n2)C1 (stereo not drawn) [2-[3-[[1-[4-(2-aminoethyl)-2-naphthyl]-3-bromo-pyrazolo[3,4-d]pyrimidin-6-yl]amino]cyclobutyl]-N-methyl-acetamide; 2,2,2-trifluoroacetic acid]
25 to 200	N#CCN1CCN(C(=O)[C@@H]2CC[C@@H](Nc3ncc4c(Br)nn(-c5cc(F)c6ncccc6c5)c4n3)C2)CC1 [2-[4-[(1R,3R)-3-[[3-bromo-1-(8-fluoro-6-quinolyl)pyrazolo[3,4-d]pyrimidin-6-yl]amino]cyclopentanecarbonyl]piperazin-1-yl]acetonitrile]
25 to 200	Cc1ccc2cc(-n3nc(Br)c4cnc(N[C@@H]5CC[C@@H](P(C)(C)=O)C5)nc43)cc(CCO)c2n1 [2-[6-[3-bromo-6-[[(1R,3R)-3-dimethyl-phosphorylcyclopentyl]amino]pyrazolo [3,4-d]pyrimidin-1-yl]-2-methyl-8-quinolyl]ethanol]
25 to 200	O=C(O)CCNC(=O)[C@@H]1CC[C@@H](Nc2ncc3c(Br)nn(-c4cc(F)c5ncccc5c4)c3n2)C1 [3-((1R,3R)-3-((3-bromo-1-(8-fluoroquinolin-6-yl)-1H-pyrazolo[3,4-d]pyrimidin-6-yl)amino)cyclopentane-1-carboxamido) propanoic acid]
< 25	CNC(=O)C1(C)CC[C@@H](Nc2ncc3c(Br)nn(-c4cc(Cl)cc(C(N)=O)c4)c3n2)C1 (stereo partly drawn) [3-[3-bromo-6-[[(1R)-3-methyl-3-(methylcarbamoyl)cyclopentyl]amino]pyrazolo[3,4-d]pyrimidin-1-yl]-5-chloro-benzamide]
